The values that follow come from patent publication US9226500B2, “Pesticidal compositions and processes related thereto” (Dow AgroSciences LLC, priority 2012, dated 2016).

The test system of this assay is Beet Armyworm (Spodoptera exigua). In words: Bioassay on Beet Armyworm (BAW), 128-well diet tray assay. The note with it: Table 3, Assays Results Part 1. In kind it is in vivo. How it is done:
Certain molecules disclosed in this document were tested against BAW, CEW and CL using procedures described in the following examples. In the reporting of the results, the “BAW & CEW & CL Rating Table” was used (See Table Section).
Bioassays on BAW (Spodoptera exigua)
Bioassays on BAW were conducted using a 128-well diet tray assay. One to five second instar BAW larvae were placed in each well (3 mL) of the diet tray that had been previously filled with 1 mL of artificial diet to which 50 μg/cm^2 of the test compound (dissolved in 50 μL of 90:10 acetone-water mixture) had been applied (to each of eight wells) and then allowed to dry. Trays were covered with a clear self-adhesive cover, and held at 25° C., 14:10 light-dark for five to seven days. Percent mortality was recorded for the larvae in each well; activity in the eight wells was then averaged. The results are indicated in the tables entitled “Table 3: Assay Results Part 1” and “Table 4: Assay Results Part 2” (See Table Section).
Turning to `O=C(NC1CS(=O)(=O)C1)c1ccc(/C=C/C(c2cc(Cl)cc(Cl)c2)C(F)(F)F)cc1F` (stereo not shown) [AC83, (E)-4-(3-(3,5-Dichlorophenyl)-4,4,4-trifluorobut-1-en-1-yl)-N-(1,1-dioxidothietan-3-yl)-2-fluorobenzamide], the “BAW Rating” value is recorded as “A (50-100)”.

For `O=C(NC1CS(=O)(=O)C1)c1ccc(/C=C/C(c2cc(Cl)c(F)c(Cl)c2)C(F)(F)F)cc1F` (stereo not shown) [AC84], the “BAW Rating” value was “A (50-100)”.

On to `COc1cc(/C=C/C(c2cc(Cl)c(F)c(Cl)c2)C(F)(F)F)ccc1C(=O)NC1CS(=O)(=O)C1` (stereo not shown) [AC85], for which the “BAW Rating” value is reported as “A (50-100)”.

Regarding `CCc1cc(/C=C/C(c2cc(Cl)c(F)c(Cl)c2)C(F)(F)F)ccc1C(=O)NC1CS(=O)(=O)C1` (stereo not shown) [AC86], the “BAW Rating” value is listed as “A (50-100)”.

On to `O=C(NC1C[S+]([O-])C1)c1ccc(/C=C/C(c2cc(Cl)c(F)c(Cl)c2)C(F)(F)F)cc1F` (stereo not shown) [AC87], for which the “BAW Rating” value is “A (50-100)”.

Consider `Cc1cc(/C=C/C(c2cc(Cl)cc(Cl)c2)C(F)(F)F)ccc1C(=O)NCc1nnc(C2CC2)o1` (stereo not shown) [AC89, (E)-N-((5-Cyclopropyl-1,3,4-oxadiazol-2-yl)methyl)-4-(3-(3,5-dichlorophenyl)-4,4,4-trifluorobut-1-en-1-yl)-2-methylbenzamide], for which the “BAW Rating” value was “A (50-100)”.

Consider `FC(F)(F)CNC(=S)CNC(=S)c1ccc(/C=C/C(c2cc(Cl)c(Cl)c(Cl)c2)C(F)(F)F)cc1Br` (stereo not shown) [AC90, (E)-2-Bromo-N-(2-thioxo-2-((2,2,2-trifluoroethyl)amino)ethyl)-4-(4,4,4-trifluoro-3-(3,4,5-trichlorophenyl)but-1-en-1-yl)benzothioamide], for which the “BAW Rating” value is listed as “A (50-100)”.

Turning to `O=C(CNC(=S)c1ccc(/C=C/C(c2cc(Cl)c(Cl)c(Cl)c2)C(F)(F)F)cc1Br)NCC(F)(F)F` (stereo not shown) [AC91, (E)-2-(2-Bromo-4-(4,4,4-trifluoro-3-(3,4,5-trichlorophenyl)but-1-en-1-yl)phenylthioamido)-N-(2,2,2-trifluoroethyl)acetamide], the “BAW Rating” value is “A (50-100)”.

Turning to `Cc1cc(/C=C\C(c2cc(Cl)cc(Cl)c2)C(F)(F)F)ccc1C(=O)NCC(=O)NC1CC1` (stereo not shown) [AC93], the “BAW Rating” value is listed as “A (50-100)”.

For `O=C(CNC(=O)c1ccc(/C=C\C(c2cc(Cl)c(Cl)c(Cl)c2)C(F)(F)F)cc1Br)NCC(F)(F)F` (stereo not shown) [AC95, (Z)-2-Bromo-N-(2-oxo-2-((2,2,2-trifluoroethyl)amino)ethyl)-4-(4,4,4-trifluoro-3-(3,4,5-trichlorophenyl)but-1-en-1-yl)benzamide], the “BAW Rating” value is given as “A (50-100)”.

On to `O=C(CNC(=O)c1ccc(/C=C/C(c2cc(Cl)c(F)c(Cl)c2)C(F)(F)F)cc1[N+](=O)[O-])NCC(F)(F)F` (stereo not shown) [AC98], for which the “BAW Rating” value is “A (50-100)”.

`O=C(CNC(=O)c1ccc(/C=C/C(c2ccc(F)c(Cl)c2)C(F)(F)F)cc1Br)NCC(F)(F)F` (stereo not shown) [AC99]: the “BAW Rating” value was “A (50-100)”.

Regarding `CC(=O)N1CCC(NC(=O)c2ccc(/C=C/C(c3cc(Cl)c(Cl)c(Cl)c3)C(F)(F)F)cc2Br)CC1` (stereo not shown) [AC103, (E)-N-(1-Acetylpiperidin-4-yl)-2-bromo-4-(4,4,4-trifluoro-3-(3,4,5-trichlorophenyl)but-1-en-1-yl)benzamide], the “BAW Rating” value is “A (50-100)”.

As to `O=C(NC1CCN(C(=O)CC(F)(F)F)CC1)c1ccc(/C=C/C(c2cc(Cl)c(Cl)c(Cl)c2)C(F)(F)F)cc1Br` (stereo not shown) [AC104, (E)-2-Bromo-4-(4,4,4-trifluoro-3-(3,4,5-trichlorophenyl)but-1-en-1-yl)-N-(1-(3,3,3-trifluoropropanoyl)piperidin-4-yl)benzamide], the “BAW Rating” value is “A (50-100)”.

`CN1CCC(NC(=O)c2ccc(/C=C/C(c3cc(Cl)c(Cl)c(Cl)c3)C(F)(F)F)cc2Br)CC1` (stereo not shown) [AC106, (E)-2-Bromo-N-(1-methylpiperidin-4-yl)-4-(4,4,4-trifluoro-3-(3,4,5-trichlorophenyl)but-1-en-1-yl)benzamide]: the “BAW Rating” value is reported as “A (50-100)”.

`N#CCN1CCC(NC(=O)c2ccc(/C=C/C(c3cc(Cl)c(Cl)c(Cl)c3)C(F)(F)F)cc2Br)CC1` (stereo not shown) [AC107]: the “BAW Rating” value is listed as “B (More than 0-Less than 50)”.
